# Experimental data reported in patent US5571701A, “Antibiotic, balhimycin, a process for its production and its use as pharmaceutical” (priority 1990, dated 1996).
# Where a name gives a salt, the structure may show the parent alone.
# How the values were obtained:
# Ps. aeruaingu = test: Minimum inhibitory concentration (MIC), antibacterial activity; type: cell-based
# P. vulaaris = test: as above; type: cell-based
# [1] = Solubility (physico-chemical properties); type: physicochemical; conditions: as its trifluoroacetate salt; solvents in which soluble
compound,measurement,setting,value
"CNC(CC(C)C)C(=O)NC1C(=O)NC(CC(N)=O)C(=O)NC2C(=O)NC3C(=O)NC(C(=O)NC(C(=O)O)c4cc(O)cc(O)c4-c4cc3ccc4O)C(OC3C[C@](C)(N)C(=O)C(C)O3)c3ccc(c(Cl)c3)Oc3cc2cc(c3OC2O[C@H](CO)C(O)[C@H](O)C2O)Oc2ccc(cc2Cl)C1O (stereo partly drawn) [Balhimycin trifluoroacetate, Balhimycin]",MIC,Ps. aeruaingu,> 100 µg/mL
same,MIC,P. vulaaris,> 100 µg/mL
same,Solubility,[1],"Water, dimethylsulfoxide"
